Biological target: T1, IRAK4 (Homo sapiens, UniProt Q9NWZ3)
T1 construct: C-terminal HiBiT-tagged Jurkat cells (polyclonal cell line or clone 8D5); endogenous in cells; host or cells: Jurkat cells (polyclonal cell line or clone 8D5), HiBiT-tagged
T1 sequence (Q9NWZ3 1-460): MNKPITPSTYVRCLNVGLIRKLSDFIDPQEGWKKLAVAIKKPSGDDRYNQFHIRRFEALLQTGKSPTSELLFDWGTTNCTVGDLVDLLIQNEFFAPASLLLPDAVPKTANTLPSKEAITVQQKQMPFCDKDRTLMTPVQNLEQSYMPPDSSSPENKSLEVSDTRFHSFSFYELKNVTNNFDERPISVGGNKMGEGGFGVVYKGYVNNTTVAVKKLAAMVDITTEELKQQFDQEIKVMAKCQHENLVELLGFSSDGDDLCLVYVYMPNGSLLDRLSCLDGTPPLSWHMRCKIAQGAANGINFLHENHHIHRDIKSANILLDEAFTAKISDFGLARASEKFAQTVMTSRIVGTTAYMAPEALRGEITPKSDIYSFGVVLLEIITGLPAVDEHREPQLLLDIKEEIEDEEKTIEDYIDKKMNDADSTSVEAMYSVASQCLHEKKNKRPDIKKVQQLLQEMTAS
Assay: IRAK4 Degradation HiBit Assay
Assay type: cell-based
Conditions: C-terminal HiBiT-tagged Jurkat cells, 4 hrs incubation; for DC50: % IRAK4 remaining, four-parameter fit (IC50 used as DC50); for Dmax: from fit of % IRAK4 remaining, read-out: Dmax
In short: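 Jurkat cells carrying C-terminal HiBiT-tagged IRAK4 (polyclonal or clone 8D5) exposed to compound, 10 μM–0.1 nM final over 11 points, for 4 h at 32 °C. Remaining IRAK4 measured by lytic HiBiT/LgBiT luminescence relative to DMSO. DC50 and Dmax taken from four-parameter variable-slope fits.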

DC50 | Dmax | SMILES
21 nM | 79% | CNc1cc(-c2ccc3cc(C#N)cnn23)ncc1-c1nnc([C@H]2CC[C@H](C(=O)N3CCc4cc([C@H]5CCC(=O)NC5=O)ccc4C3)CC2)s1 (racemic) [Example 5, 7-[4-(methylamino)-5-{5-[(1r,4r)-4-{6-[(3RS)-2,6-dioxopiperidin-3-yl]-1,2,3,4-tetrahydroisoquinoline-2-carbonyl}cyclohexyl]-1,3,4-thiadiazol-2-yl}pyridin-2-yl]pyrrolo[1,2-b]pyridazine-3-carbonitrile]
123 nM | 76% | CC(C)Nc1cc(-c2ccc3cc(C#N)cnn23)ncc1-c1nnc(N2CCN(CC3CCN(c4ccc(C5CCC(=O)NC5=O)cc4)CC3)CC2)s1 (racemic) [Example 64, rac-7-[5-(5-{4-[(1-{4-[(3R)-2,6-dioxopiperidin-3-yl]phenyl}piperidin-4-yl)methyl]piperazin-1-yl}-1,3,4-thiadiazol-2-yl)-4-[(propan-2-yl)amino]pyridin-2-yl]pyrrolo[1,2-b]pyridazine-3-carbonitrile]
10 nM | 116% | CNc1cc(-c2ccc3cc(C#N)cnn23)ncc1-c1nnc(C2CCN(CC3CCN(c4ccc(C5CCC(=O)NC5=O)cn4)CC3)CC2)s1 (racemic) [Example 81, rac-7-[5-(5-{1-[(1-{5-[(3R)-2,6-dioxopiperidin-3-yl]pyridin-2-yl}piperidin-4-yl)methyl]piperidin-4-yl}-1,3,4-thiadiazol-2-yl)-4-(methylamino)pyridin-2-yl]pyrrolo[1,2-b]pyridazine-3-carbonitrile]
860 nM | 96% | N#Cc1cnn2c(-c3cc(NC4CCC(F)(F)CC4)c(-c4nnc(N5CCN(CC6CCN(c7ccc(C8CCC(=O)NC8=O)cn7)CC6)CC5)s4)cn3)ccc2c1 (racemic) [Example 1, rac-7-{4-[(4,4-difluorocyclohexyl)amino]-5-(5-{4-[(1-{5-[(3R)-2,6-dioxopiperidin-3-yl]pyridin-2-yl}piperidin-4-yl)methyl]piperazin-1-yl}-1,3,4-thiadiazol-2-yl)pyridin-2-yl}pyrrolo[1,2-b]pyridazine-3-carbonitrile]
29 nM | 95% | N#Cc1cnn2c(-c3cc(NC4CCOCC4)c(-c4nnc(C56CCC(C(=O)N7CCc8cc(N9CCC(=O)NC9=O)ccc8C7)(CC5)CC6)s4)cn3)ccc2c1 [Example 63, 7-[5-(5-{4-[6-(2,4-dioxo-1,3-diazinan-1-yl)-1,2,3,4-tetrahydroisoquinoline-2-carbonyl]bicyclo[2.2.2]octan-1-yl}-1,3,4-thiadiazol-2-yl)-4-[(oxan-4-yl)amino]pyridin-2-yl]pyrrolo[1,2-b]pyridazine-3-carbonitrile]
16 nM | 115% | CNc1cc(-c2ccc3cc(C#N)cnn23)ncc1-c1nnc(N2CCN(CC3CCN(c4ccc([C@@H]5CCC(=O)NC5=O)cn4)CC3)CC2)s1 (single isomer, unassigned) [Example 42]
65 nM | 90% | N#Cc1cnn2c(-c3cc(NC4CCOCC4)c(-c4nnc(N5CCN(CC6CCN(c7ccc(C8CCC(=O)NC8=O)cc7F)CC6)CC5)s4)cn3)ccc2c1 (racemic) [Example 4, rac-7-[5-(5-{4-[(1-{4-[(3R)-2,6-dioxopiperidin-3-yl]-2-fluorophenyl}piperidin-4-yl)methyl]piperazin-1-yl}-1,3,4-thiadiazol-2-yl)-4-[(oxan-4-yl)amino]pyridin-2-yl]pyrrolo[1,2-b]pyridazine-3-carbonitrile]
23 nM | 111% | CC1(Nc2cc(-c3ccc4cc(C#N)cnn34)ncc2-c2nnc(N3CCN(CC4CCN(c5ccc(C6CCC(=O)NC6=O)cc5)CC4)CC3)s2)COC1 (racemic) [Example 76, rac-7-[5-(5-{4-[(1-{4-[(3R)-2,6-dioxopiperidin-3-yl]phenyl}piperidin-4-yl)methyl]piperazin-1-yl}-1,3,4-thiadiazol-2-yl)-4-[(3-methyloxetan-3-yl)amino]pyridin-2-yl]pyrrolo[1,2-b]pyridazine-3-carbonitrile]
21 nM | 115% | CNc1cc(-c2ccc3cc(C#N)cnn23)ncc1-c1nnc(N2CCN(CC3CCN(c4ccc(C5CCC(=O)NC5=O)cc4)CC3)CC2)s1 (racemic) [Example 79, rac-7-[5-(5-{4-[(1-{4-[(3R)-2,6-dioxopiperidin-3-yl]phenyl}piperidin-4-yl)methyl]piperazin-1-yl}-1,3,4-thiadiazol-2-yl)-4-(methylamino)pyridin-2-yl]pyrrolo[1,2-b]pyridazine-3-carbonitrile]
64 nM | 114% | CNc1cc(-c2ccc3cc(C#N)cnn23)ncc1-c1nnc(N2CCN(C3CCN(CC4CCN(c5ccc(C6CCC(=O)NC6=O)cn5)CC4)CC3)CC2)s1 (racemic) [Example 53, rac-7-{5-[5-(4-{1-[(1-{5-[(3R)-2,6-dioxopiperidin-3-yl]pyridin-2-yl}piperidin-4-yl)methyl]piperidin-4-yl}piperazin-1-yl)-1,3,4-thiadiazol-2-yl]-4-(methylamino)pyridin-2-yl}pyrrolo[1,2-b]pyridazine-3-carbonitrile]
75 nM | 106% | N#Cc1cnn2c(-c3cc(NC4CCOCC4)c(-c4nnc(N5CCN(CC6CCN(c7ccc([C@@H]8CCC(=O)NC8=O)nc7)CC6)CC5)s4)cn3)ccc2c1 (single isomer, unassigned) [Example 117]
45 nM | 101% | N#Cc1cnn2c(-c3cc(NC4CCOCC4)c(-c4nnc(N5CCC6(CCN(CC7CCN(c8ccc(C9CCC(=O)NC9=O)cn8)CC7)CC6)CC5)s4)cn3)ccc2c1 (racemic) [Example 33, rac-7-[5-(5-{9-[(1-{5-[(3R)-2,6-dioxopiperidin-3-yl]pyridin-2-yl}piperidin-4-yl)methyl]-3,9-diazaspiro[5.5]undecan-3-yl}-1,3,4-thiadiazol-2-yl)-4-[(oxan-4-yl)amino]pyridin-2-yl]pyrrolo[1,2-b]pyridazine-3-carbonitrile]
60 nM | 91% | N#Cc1cnn2c(-c3cc(NC4CCOCC4)c(-c4nnc(C56CCC(C(=O)N7CCC(Oc8ccc(C9CCC(=O)NC9=O)cn8)CC7)(CC5)CC6)s4)cn3)ccc2c1 (racemic) [Example 21, rac-7-[5-(5-{4-[4-({5-[(3R)-2,6-dioxopiperidin-3-yl]pyridin-2-yl}oxy)piperidine-1-carbonyl]bicyclo[2.2.2]octan-1-yl}-1,3,4-thiadiazol-2-yl)-4-[(oxan-4-yl)amino]pyridin-2-yl]pyrrolo[1,2-b]pyridazine-3-carbonitrile]

SMILES | DC50 | Dmax
CCNc1cc(-c2ccc3cc(C#N)cnn23)ncc1-c1nnc(N2CC3CCC(C2)N3CC2CCN(c3ccc([C@H]4CCC(=O)NC4=O)cn3)CC2)s1 (racemic) [Example 89, rac-7-[5-(5-{8-[(1-{5-[(3R)-2,6-dioxopiperidin-3-yl]pyridin-2-yl}piperidin-4-yl)methyl]-3,8-diazabicyclo[3.2.1]octan-3-yl}-1,3,4-thiadiazol-2-yl)-4-(ethylamino)pyridin-2-yl]pyrrolo[1,2-b]pyridazine-3-carbonitrile] | 24 nM | 112%
N#Cc1cnn2c(-c3cc(Nc4cnoc4)c(-c4nnc(N5CC6CCC(C5)N6CC5CCN(c6ccc([C@@H]7CCC(=O)NC7=O)cn6)CC5)s4)cn3)ccc2c1 (single isomer, unassigned) [Example 136] | 25 nM | 113%
N#Cc1cnn2c(-c3cc(NC4CC4)c(-c4nnc(N5CC6CCC(C5)N6CC5CCN(c6ccc([C@H]7CCC(=O)NC7=O)cn6)CC5)s4)cn3)ccc2c1 (racemic) [Example 95, rac-7-[4-(cyclopropylamino)-5-(5-{8-[(1-{5-[(3R)-2,6-dioxopiperidin-3-yl]pyridin-2-yl}piperidin-4-yl)methyl]-3,8-diazabicyclo[3.2.1]octan-3-yl}-1,3,4-thiadiazol-2-yl)pyridin-2-yl]pyrrolo[1,2-b]pyridazine-3-carbonitrile] | 27 nM | 108%
N#Cc1cnn2c(-c3cc(NC4CCOCC4)c(-c4nnc(N5CC6CCC(C5)N6CC5CCN(c6ccc([C@@H]7CCC(=O)NC7=O)cn6)CC5)s4)cn3)ccc2c1 (racemic) [Example 34, rac-7-[5-(5-{8-[(1-{5-[(3R)-2,6-dioxopiperidin-3-yl]pyridin-2-yl}piperidin-4-yl)methyl]-3,8-diazabicyclo[3.2.1]octan-3-yl}-1,3,4-thiadiazol-2-yl)-4-[(oxan-4-yl)amino]pyridin-2-yl]pyrrolo[1,2-b]pyridazine-3-carbonitrile] | 24 nM | 97%
N#Cc1cnn2c(-c3cc(NC4(C#N)CC4)c(-c4nnc(N5CC6CCC(C5)N6CC5CCN(c6ccc([C@H]7CCC(=O)NC7=O)cn6)CC5)s4)cn3)ccc2c1 (racemic) [Example 103, rac-7-{4-[(1-cyanocyclopropyl)amino]-5-(5-{8-[(1-{5-[(3R)-2,6-dioxopiperidin-3-yl]pyridin-2-yl}piperidin-4-yl)methyl]-3,8-diazabicyclo[3.2.1]octan-3-yl}-1,3,4-thiadiazol-2-yl)pyridin-2-yl}pyrrolo[1,2-b]pyridazine-3-carbonitrile] | 12 nM | 106%

— patent US12570662B2, “Substituted pyrrolo[1,2-b]pyridazines as bifunctional degraders of interleukin-1 receptor-associated kinases” (Nurix Therapeutics, Inc., priority 2021, dated 2026)
